Test results reported in US4581847A, “Tryptophan overproducer mutants of cereal crops” (Molecular Genetics Research and Development, priority 1984, dated 1986).
pIC50: −log10 of the molar value. Where two headings read alike, the source gives them in different places.

How the values were obtained:
maize line C28 callus = assay: Four week callus growth inhibition study, resistant line C28; type: cell-based
Experimental: (§1) The tryptophan analog, 5-methyltryptophan (5MT), was used for selection of tryptophan overproducer mutants as discussion in Section 5 supra. The effect of various concentrations of 5MT on callus growth on solid media was determined. Quantities of tissue averaging 50 mg in size were transferred to nutrient agar maintenance media containing 5MT concentrations ranging from 1.0 to 200 μM. Four tissue pieces were placed on each plate with four plates per analog concentration. After 28 days growth, the tissue was weighed again.
For each transfer all tissue showing growth and somatic embryo forming ability were placed on fresh media. At the third transfer, the concentration of 5MT was increased to 100 μM. During the course of the selection process, the total number of lines decreased as the analog mediated growth inhibition became more intense. Two lines however, increased in size and by the end of the fourth month of selection were identified as resistant to 5MT. These cell lines were identified as maize line C28 and C66. […]
Four week growth inhibition studies were carried out with 5MT as described supra. The level of 5MT giving 50% growth inhibition was determined to be between 300 and 400 μM for the C28 line compared to 3 to 10 μM for unselected parent tissue. […]

maize line C66 callus = assay: Callus growth inhibition study, resistant line C66; type: cell-based; conditions: C66, 5MT at 100 μM or below
Experimental: as §1
For each transfer all tissue showing growth and somatic embryo forming ability were placed on fresh media. At the third transfer, the concentration of 5MT was increased to 100 μM. During the course of the selection process, the total number of lines decreased as the analog mediated growth inhibition became more intense. Two lines however, increased in size and by the end of the fourth month of selection were identified as resistant to 5MT. These cell lines were identified as maize line C28 and C66. […] Throughout this selection process, the selected cell lines maintained a friable appearance that was similar to the appearance of the original parent cell line.

[1] = tested on: maize callus tissue (unselected parent, A188 x B73); assay: Callus culture growth inhibition by 5MT, unselected parent tissue; type: cell-based; conditions: for pIC50: Zea mays, 672 h
Experimental: Friable, embryogenic maize callus cultures were initiated from hybrid immature embryos produced by pollination of inbred line A188 plants (University of Minnesota, Crop Improvement Association) with pollen of Inbred line B73 plants (Iowa State University). Ears were harvested when embryos had reached a length of 1.5 to 2.0 mm. The whole ear was surface sterilized in […] commercial bleach (2.63% w/v sodium hypochlorite) for 20 minutes at room temperature. The ears were then washed with sterile distilled, deionized water. Immature embryos were aseptically isolated and placed on nutrient agar initiation/maintenance media with the root/shoot axis exposed to the media. Initiation/maintenance media consisted of N6 basal media (Chih-ching in Proceedings of Symposium on Plant Tissue Culture, May 25-30, 1978, Science Press, Peking, pp. 43-50) with 2% (w/v) sucrose, 1.5 mg per liter 2,4-dichlorophenoxyacetic acid (2,4-D), 6 mM proline, and 0.9% (w/v) agar.
The immature embryos were incubated at 26° C. in the dark. Cell proliferations from the scutellum of the immature embryos were evaluated for friable consistency and the presence of well defined somatic embryos. Tissue with this morphology was transferred to fresh media 10 to 14 days after the initial plating of the immature embryos. The tissue was then subcultured on a routine basis every 12 to 16 days. Sixty to eighty milligram quantities of tissue were removed from pieces of tissue that had reached a size of approximately one gram and transferred to fresh media. Subculturing always involved careful visual monitoring to be sure that only tissue of the correct morphology was maintained. The presence of the somatic embryos ensured that the cultures would give rise to plants under the proper conditions.
as §1

[2] = tested on: anthranilate synthase (crude callus extracts: AB108 control, K17 line of C28); assay: Anthranilate synthase assay with 5MT as enzyme inhibitor; type: biochemical, maize; conditions: 30° C., 30 minutes, 0.25 mM chorismate, 20 mM L-glutamine; FIG. 4
Experimental: Assays were conducted to determine whether 5MT resistance was conferred by an alteration in the gene that codes for the anthranilate synthase enzyme. Crude enzyme extract of AB108 control callus and the selected K17 line of C28 callus were prepared as described below. The K17 line of C28 was derived from a regenerated C28 plant crossed with a control plant and then self-pollinated. Immature embryos were then cultured and a callus line developed as described previously.
Plant callus tissue was ground using a mortar and pestle and extracted with 0.2 M Tris-HCl, pH 8.2, 60% glycerol, 0.2 mM dithiothreitol (DTT), 0.2 mM ethylenediaminetetraacetic acid (EDTA), 1.0 mM magnesium sulfate (MgSO4), 20 mM sodium chloride (NaCl) and 1.0 mM L-tryptophan. One ml extraction buffer was used per 2 g callus. The extract was centrifuged at 10,000×g for 25 minutes at 4° C. The supernatant was applied to a 3 cm×15 cm Bio Gel-P6 column (Bio-Rad, Richmond, Calif.) equilibrated with 0.1 M Tris-HCl, pH 7.6, 10% glycerol, 0.1 mM DTT and 0.1 mM EDTA and eluted with the same buffer. 0.75 ml fractions were collected and fractions containing protein were pooled. […]
Assays were conducted in 1 ml volumes as follows. […] The fluorescence due to the production of anthranilate was measured in the 3.5 ml extractant using a Kratos FS950 fluorimeter (Kratos Analytical Instruments, Ramsey, N.J.).

Cc1ccc2[nH]cc(C[C@H](N)C(=O)O)c2c1 [5MT, 5-methyltryptophan]
Growth inhibition by the analog compared to parental cell line AB1 (FIG. 2) (maize line C28 callus; C28, 5MT at 100 μM or below): no longer seriously inhibited
pIC50 (maize line C28 callus; Zea mays, 672 h, C28 line, four week growth inhibition, read-out: Level of 5MT giving 50% growth inhibition): 3.40 to 3.52
Growth inhibition by the analog compared to parental cell line AB1 (FIG. 2) (maize line C66 callus): no longer seriously inhibited
pIC50 ([1]; callus on solid maintenance media, 28 days growth, 1.0 to 200 μM 5MT, read-out: 5MT concentration giving half maximal inhibition of growth rate): 5.00 to 5.52
pIC50 ([1]; unselected parent tissue, four week growth inhibition, read-out: Level of 5MT giving 50% growth inhibition): 5.00 to 5.52
Cell death ([1]; analog concentrations of 100 and 200 μM, 28 days): Cell death was observed
Fold higher 5MT level needed for 50% inhibition of C28 AS compared with control AS [2]: 10 fold

N[C@@H](Cc1c[nH]c2ccccc12)C(=O)O [Tryptophan]
Reversal of growth inhibitory effects of 5MT ([1]; tryptophan added to 5MT-inhibited callus): reverse all the growth inhibitory effects of 5MT
